US20150374705A1, “Substances for treatment or relief of pain” (Shanghai Institues for Biological Sciences, priority 2012, published 2015)
“Also recorded” adds a separate entry of the source.

Columns and labels:
Type in all cases: in vivo
[1] = system: SNI model rats (neuropathic pain); experiment: Spared nerve injury (SNI) model, neuropathic pain, mechanical pain threshold; settings: rat; for Neuropathic pain (SNI model), analgesic effect: 3 mg/kg subcutaneous, 14 days after SNI, 1 hour after administration
Procedure: Male SD rats (200-250 g) were used, 6 per group in the cage. All the animals were placed under 12 hours light/cycle (i.e. 12 hours light and 12 hours dark in each day), free to food and water. All the experiments were conducted under the condition that the observers were blind to pharmaceutical treatment.
Spared nerve injury model (SNI): 10% chloral hydrate was injected intraperitoneally to anesthetize rats. […] The muscle was longitudinally separated to expose the core of sciatic nerve and the branching below: tibial nerve, common peroneal nerve and sural nerve. The tibial nerve and common peroneal nerve were ligatured and cut and small sural nerve was retained, meanwhile preventing any injury. The muscle and skin were sutured layer by layer, and then antibiotics were injected intraperitoneally for antibacterial purpose. For detailed methods, please refer to Decosterd I and Woolf C J. Spared nerve injury: an animal model of persistent peripheral neuropathic pain. 2000 August; Pain 87(2):149-58.
Method for detecting mechanical hyperalgesia in rats: firstly CFA solution was injected in the thenar of rats. After 24 hours, mechanical hyperalgesia quantitative detection was adopted to measure the paw withdrawal of rats to normal and harmless mechanical stimulation. Evaluation was conducted according to reference (Chaplan S R et al., Quantitative assessment of tactile allodynia in the rat paw. J Neurosci Methods. 1994 July; 53(1):55-63). In this method, the von Frey fibers with different bending force (equivalent to the range of 1-50 g force) were used to apply harmless mechanical stimulation. The rats were placed in organic glass box with metal mesh plate, and the von Frey fibers were applied on the surface of leg thenar. The von Frey fibers were applied vertically to the surface of thenar to generate the force that will trigger slight resistance to the leg. 2-3 seconds were maintained for every leg thenar. If the leg withdrew suddenly, positive records were recorded. The threshold was the mean of the weight that caused 50% paw withdrawal response (5-6 paw withdrawal/10 stimulations) in overall 10 stimulations.
Compounds MRK 016, C2, C3, C4, C5, C6, C7, C8 or α5IA (A5I) were dissolved in 70% PGE400 (PGE400:water=70:30 in volume). For injection dose, MRK016 was 2 mg/kg body weight; A5I was 3 mg/kg body weight; C2, C3, C4, C5, C6, C7 and C8 were 3 mg/kg body weight.
MRK016-M3 was dissolved in 90% PGE400 (PGE400:water=90:10 in volume). The doses were 10 mg/kg, 3 mg/kg, 1 mg/kg and 0.3 mg/kg, respectively for oral administration.
The method for behavioral data statistics was unpaired t-test. *, p<0.05, represents significant difference.

[2] = system: CFA induced inflammatory pain model rats (heat pain); experiment: CFA induced inflammatory pain model, heat pain threshold; settings: rat, 3 mg/kg injection, 3 days after CFA, 1 hour after administration
[3] = system: CFA induced inflammatory pain model rats (mechanical pain); experiment: CFA induced inflammatory pain model, mechanical pain threshold; settings: rat, 3 mg/kg injection, 7 days after CFA, 1 hour after administration

Compound | Neuropathic pain (SNI model), analgesic effect ([1]; 3 mg/kg) | CFA induced inflammatory pain model (heat pain), analgesic effect ([2]; 3 mg/kg) | CFA induced inflammatory pain model (mechanical pan), analgesic effect ([3]; 3 mg/kg) | Neuropathic pain (SNI model), analgesic effect [1] | CFA induced inflammatory pain model (heat pain), analgesic effect [2] | CFA induced inflammatory pain model (mechanical pan), analgesic effect [3] | Suppression of neuropathic pain ([1]; 11 days after SNI model)
OCc1cc(-c2nnc3c4ccccc4c(OCc4cccnc4)nn23)no1 [Compound C6, {3-[6-(Pyridin-3-ylmethoxy)-[1,2,4]triazolo[3,4-a]phthalazin-3-yl]-isoxazol-5-yl}-methanol] | efficiently inhibit nociceptive response; also recorded: efficiently suppressed neuropathic pain | efficiently inhibit nociceptive response; also recorded: efficiently suppressed heat pain or mechanical pain response | efficiently inhibit nociceptive response; also recorded: efficiently suppressed heat pain or mechanical pain response |  |  |  | 
FC(F)c1ccc2c(c1)-c1ncnn1Cc1c(Cl)ncn1-2 |  |  |  | Significant analgesic effect | Significant analgesic effect | Significant analgesic effect | 
Cc1ncn2c1Cn1ncnc1-c1cc(C(F)F)ccc1-2 |  |  |  | Significant analgesic effect | Significant analgesic effect | Significant analgesic effect | 
FC(F)c1ncn2c1Cn1ncnc1-c1cc(I)ccc1-2 |  |  |  | Significant analgesic effect | Significant analgesic effect | Significant analgesic effect | 
CC(C)(C)C1C(OCc2ccccn2)=NN2C(c3cc(CO)on3)=NN=CC12 (stereo not shown) [Compound C2, (3-(3-tert-butyl-2-(2-pyridylmethoxyl)-3,3a-2H-pyrazolo[1,5-d][1,2,4]triazin-7-yl)isoxazole-5-yl)methanol] | efficiently treat pain; also recorded: efficiently suppressed neuropathic pain | efficiently treat chronic pain; also recorded: efficiently suppressed heat pain or mechanical pain response | efficiently treat pain; also recorded: efficiently suppressed heat pain or mechanical pain response |  |  |  | 
OCc1cc(-c2nnc3c4ccccc4c(OCc4ccncc4)nn23)no1 [Compound C7, {3-[6-(Pyridin-4-ylmethoxy)-[1,2,4]triazolo[3,4-a]phthalazin-3-yl]isoxazol-5-yl}-methanol] | efficiently inhibit nociceptive response; also recorded: efficiently suppressed neuropathic pain | efficiently inhibit nociceptive response; also recorded: efficiently suppressed heat pain or mechanical pain response | efficiently inhibit nociceptive response; also recorded: efficiently suppressed heat pain or mechanical pain response |  |  |  | 
CC(C)(C)C1C(OCc2cccnc2)=NN2C(c3cc(CO)on3)=NN=CC12 (stereo not shown) [Compound C3, (3-(3-tert-butyl-2-(3-pyridylmethoxyl)-3,3a-2H-pyrazolo[1,5-d][1,2,4]triazin-7-yl)isoxazole-5-yl)methanol] | efficiently treat pain; also recorded: efficiently suppressed neuropathic pain | efficiently treat chronic pain; also recorded: efficiently suppressed heat pain or mechanical pain response | efficiently treat pain; also recorded: efficiently suppressed heat pain or mechanical pain response |  |  |  | 
NCC1(CC(=O)O)CCCCC1 [gabapentin] |  |  |  |  |  |  | efficiently suppressed neuropathic pain
